The source of these data is patent US20230029066A1, “CRYSTAL FORMS OF FUSED RING COMPOUND, AND COMPOSITION THEREOF, PREPARATION METHOD THEREFOR AND APPLICATION THEREOF” (HANGZHOU YUSHENG MEDICAL TECHNOLOGY CO. LTD, priority 2019, published 2023).

In general, solubility refers to the concentration that dissolves in the medium under given conditions.

The structures appear in SMILES notation. Converted amounts (≈) assume the structure as drawn. “Also recorded” adds a separate entry of the source. Like-named read-outs stand apart in the source and are kept apart here.

What all share (type): physicochemical
Data set [1] in a line: Effect of crystal form on stability, high humidity test for 5 days (XRD). The conditions noted are these: room temperature, unsealed, desiccator with saturated potassium nitrate. As for the experimental part: Evaluation on effect of crystal form on stability—high humidity test for 5 days
The amorphous form obtained in Example 11, crystal form IV obtained in Example 3, crystal form I obtained in Example 6, and crystal form II obtained in Example 8 were each taken 30 mg, in triplicate, put into a penicillin bottle, which is transferred, without being sealed, at room temperature into a desiccator with saturated potassium nitrate at the bottom, and the samples were taken after 5 days and tested by XRD.

Data set [2] can be described thus: Effect of crystal form on stability, high temperature test for 5 days (XRD). The conditions noted are these: 60° C., unsealed. The protocol:
Evaluation on effect of crystal form on stability—high temperature test for 5 days
The amorphous form obtained in Example 11, crystal form IV obtained in Example 3, crystal form I obtained in Example 6, and crystal form II obtained in Example 8 were each taken 30 mg, in triplicate, put into a penicillin bottle, which is transferred, without being sealed, to QG 2003 ba incubation and drying oven, of which the temperature was adjusted to 60° C. The samples were taken after 5 days and tested by XRD.

Data set [3] can be described thus: Accelerated stability test for 30 days (XRD). The conditions noted are these: 40° C., sealed bags. The protocol: Evaluation for accelerated stability of crystal forms I, II and IV
Crystal form IV obtained in Example 3, crystal form I obtained in Example 6, and crystal form II obtained in Example 8 were each taken 30 mg, in triplicate, put into sealed bags, which is transferred into BPN-80CH CO2 incubator, of which the temperature was set at 40° C. The samples were taken after 30 days and tested by XRD.

Data set [4] in a line: Stability in solution within 24 hours.
Data set [5] is described as follows: Solubility of crystal forms in different environments. An excerpt:
The solubilities (μg/mL) of crystal form I in different environments are shown in […]

The mark [6] stands for this setting: Simulated fasting intestinal fluid (FaSSIF).
Setting [7] is: Simulated postprandial intestinal fluid (FeSSIF).
Setting [8] is: pH 1.2 hydrochloric acid solution.
[9] abbreviates: pH 4.5 acetic acid-sodium acetate solution.
The mark [10] stands for this setting: Simulated fasting intestinal fluid (FaSSIF), R.T. (25° C.).
Where [11] appears, read: Simulated gastric fluid (SGF), 37° C.
The mark [12] stands for this setting: Simulated gastric fluid (SGF), R.T. (25° C.).
Setting [13] is: Simulated gastric fluid (SGF), Ultrasonic.
[14] abbreviates: Simulated postprandial intestinal fluid (FeSSIF), 37° C.
Setting [15] is: Simulated postprandial intestinal fluid (FeSSIF), R.T. (25° C.).
The mark [16] stands for this setting: Simulated postprandial intestinal fluid (FeSSIF), Ultrasonic.
The mark [17] stands for this setting: pH 1.2 hydrochloric acid solution, 37° C.
Where [18] appears, read: pH 1.2 hydrochloric acid solution, R.T. (25° C.).
Where [19] appears, read: pH 1.2 hydrochloric acid solution, Ultrasonic.
Setting [20] is: pH 4.5 acetic acid-sodium acetate solution, 75° C.
Setting [21] is: pH 4.5 acetic acid-sodium acetate solution, R.T. (25° C.).

Take `COc1ncc(-c2ccc3ncc(C#N)c(N4CCOC[C@H]4C)c3c2)cc1NS(C)(=O)=O` [amorphous form, (R)-N-(5-(3-cyano-4-(3-methylmorpholinyl)quinolin-6-yl)-2-methoxypyridin-3-yl)methanesulfonamide, reference compound]: the “solid-form stability, change of XRD after high humidity test” value in data set [1] is “obvious crystal transformation; also recorded: significant crystal transformation”. Also, the “solid-form stability, change of XRD after high temperature test” value in data set [2] is listed as “obvious crystal transformation; also recorded: significant crystal transformation”.
Consider `COc1ncc(-c2ccc3ncc(C#N)c(N4CCOC[C@H]4C)c3c2)cc1NS(C)(=O)=O` [crystal form II, (R)-N-(5-(3-cyano-4-(3-methylmorpholinyl)quinolin-6-yl)-2-methoxypyridin-3-yl)methanesulfonamide], for which, in data set [1], the “solid-form stability, change of XRD after high humidity test” value is on record as “barely no change; also recorded: stable”. Moreover, the “solid-form stability, change of XRD after accelerated stability test” value in data set [3] is “barely no change; also recorded: stable”. The “solid-form stability, change of XRD after high temperature test” value in data set [2] is listed as “barely no change; also recorded: stable”.
As for `COc1ncc(-c2ccc3ncc(C#N)c(N4CCOC[C@H]4C)c3c2)cc1NS(C)(=O)=O` [crystal form IV, (R)-N-(5-(3-cyano-4-(3-methylmorpholinyl)quinolin-6-yl)-2-methoxypyridin-3-yl)methanesulfonamide], in data set [1], the “solid-form stability, change of XRD after high humidity test” value is on record as “barely no change; also recorded: stable”. Moreover, the Stability result in data set [4] (setting [6]), in data set [4] (Simulated gastric fluid (SGF)), in data set [4] (setting [7]), in data set [4] (Water), in data set [4] (setting [8]) and in data set [4] (setting [9]) was “Stable within” throughout. Besides, in data set [4] (pH 6.8 PBS solution), the Stability entry is given as “Stable within”. Besides, the solubility in data set [5] (Simulated fasting intestinal fluid (FaSSIF), 37° C.) is 4.70 µg/mL (≈ 10.4 µM); in data set [5] (Simulated fasting intestinal fluid (FaSSIF), 75° C.), 5.12 µg/mL (≈ 11.3 µM); in data set [5] (setting [10]), 6.05 µg/mL (≈ 13.3 µM); in data set [5] (Simulated fasting intestinal fluid (FaSSIF), Ultrasonic), 5.43 µg/mL (≈ 12 µM); in data set [5] (setting [11]), 655.37 µg/mL (≈ 1450 µM); in data set [5] (Simulated gastric fluid (SGF), 75° C.) it was 766.58 µg/mL (≈ 1690 µM). Besides, the solubility is 533.36 µg/mL (≈ 1180 µM) in data set [5] (setting [12]); 570.49 µg/mL (≈ 1260 µM) in data set [5] (setting [13]); 26.02 µg/mL (≈ 57.4 µM) in data set [5] (setting [14]); 28.48 µg/mL (≈ 62.8 µM) in data set [5] (Simulated postprandial intestinal fluid (FeSSIF), 75° C.); 31.70 µg/mL (≈ 69.9 µM) in data set [5] (setting [15]); 29.70 µg/mL (≈ 65.5 µM) in data set [5] (setting [16]). The solubility in data set [5] (Water, 37° C.) was found to be 2.39 µg/mL (≈ 5.27 µM); in data set [5] (Water, 75° C.), 2.98 µg/mL (≈ 6.57 µM); in data set [5] (Water, R.T. (25° C.)), 2.68 µg/mL (≈ 5.91 µM); in data set [5] (Water, Ultrasonic), 2.96 µg/mL (≈ 6.53 µM); in data set [5] (setting [17]), 1431.40 µg/mL (≈ 3160 µM); in data set [5] (pH 1.2 hydrochloric acid solution, 75° C.) it was 1516.50 µg/mL (≈ 3340 µM). The solubility was 1283.50 µg/mL (≈ 2830 µM) in data set [5] (setting [18]); 1289.40 µg/mL (≈ 2840 µM) in data set [5] (setting [19]); 3.04 µg/mL (≈ 6.7 µM) in data set [5] (pH 4.5 acetic acid-sodium acetate solution, 37° C.); 3.45 µg/mL (≈ 7.61 µM) in data set [5] (setting [20]); 2.75 µg/mL (≈ 6.06 µM) in data set [5] (setting [21]); 3.04 µg/mL (≈ 6.7 µM) in data set [5] (pH 4.5 acetic acid-sodium acetate solution, Ultrasonic). For the same molecule, the solubility in data set [5] (pH 6.8 PBS solution, 37° C.) was 2.18 µg/mL (≈ 4.81 µM); in data set [5] (pH 6.8 PBS solution, 75° C.), 2.62 µg/mL (≈ 5.78 µM); in data set [5] (pH 6.8 PBS solution, R.T. (25° C.)), 2.12 µg/mL (≈ 4.67 µM); in data set [5] (pH 6.8 PBS solution, Ultrasonic), 2.48 µg/mL (≈ 5.47 µM). The “solid-form stability, change of XRD after accelerated stability test” value in data set [3] is “barely no change; also recorded: stable”. For the same molecule, the “solid-form stability, change of XRD after high temperature test” value in data set [2] is listed as “barely no change; also recorded: stable”.
Regarding `COc1ncc(-c2ccc3ncc(C#N)c(N4CCOC[C@H]4C)c3c2)cc1NS(C)(=O)=O` [crystal form I, (R)-N-(5-(3-cyano-4-(3-methylmorpholinyl)quinolin-6-yl)-2-methoxypyridin-3-yl)methanesulfonamide], the figures for the “solid-form stability, change of XRD after high humidity test” value in data set [1] and in data set [1] (listed as Crystal form I) were “barely no change” and “stable”, respectively. The Stability entry in data set [4] (setting [6]), in data set [4] (Simulated gastric fluid (SGF)), in data set [4] (setting [7]), in data set [4] (Water), in data set [4] (setting [8]) and in data set [4] (setting [9]) was “Stable within” throughout. Further, the Stability result in data set [4] (pH 6.8 PBS solution) is on record as “Stable within”. Also, the solubility in data set [5] (setting [10]) was 2.07 µg/mL (≈ 4.56 µM); in data set [5] (setting [11]) it was 167.38 µg/mL (≈ 369 µM); in data set [5] (setting [12]) it was 99.81 µg/mL (≈ 220 µM); in data set [5] (setting [13]) it was 119.65 µg/mL (≈ 264 µM); in data set [5] (setting [14]), 11.35 µg/mL (≈ 25 µM); in data set [5] (setting [15]) it was 8.09 µg/mL (≈ 17.8 µM). Besides, the solubility in data set [5] (setting [16]) was 9.46 µg/mL (≈ 20.9 µM); in data set [5] (pH 1.2 hydrochloric acid solution, 75 °C, pH 1.2, simulated gastric fluid, thermodynamic from solid, pH 1.2 hydrochloric acid solution, 75° C., read-out: solubility) it was 868 µg/mL (≈ 1910 µM); in data set [5] (setting [17]) it was 404.30 µg/mL (≈ 891 µM); in data set [5] (setting [18]), 275.20 µg/mL (≈ 607 µM); in data set [5] (setting [19]) it was 294.60 µg/mL (≈ 650 µM); in data set [5] (pH 4.5 acetic acid-sodium acetate solution, 37 °C, pH 4.5, aqueous buffer, thermodynamic from solid, pH 4.5 acetic acid-sodium acetate solution, 37° C., read-out: solubility), 1.67 µg/mL (≈ 3.68 µM). For the same molecule, the solubility is 1.56 µg/mL (≈ 3.44 µM) in data set [5] (pH 4.5 acetic acid-sodium acetate solution, pH 4.5, aqueous buffer, thermodynamic from solid, pH 4.5 acetic acid-sodium acetate solution, Ultrasonic, read-out: solubility); 1.55 µg/mL (≈ 3.42 µM) in data set [5] (setting [20]); 1.29 µg/mL (≈ 2.84 µM) in data set [5] (setting [21]); 3.58 µg/mL (≈ 7.89 µM) in data set [5] (pH 6.8 PBS solution, 25 °C, pH 6.8, aqueous buffer, thermodynamic from solid, pH 6.8 PBS solution, R.T. (25° C.), read-out: solubility); 1.51 µg/mL (≈ 3.33 µM) in data set [5] (pH 6.8 PBS solution, 37 °C, pH 6.8, aqueous buffer, thermodynamic from solid, pH 6.8 PBS solution, 37° C., read-out: solubility); 1.41 µg/mL (≈ 3.11 µM) in data set [5] (pH 6.8 PBS solution, 75 °C, pH 6.8, aqueous buffer, thermodynamic from solid, pH 6.8 PBS solution, 75° C., read-out: solubility). Besides, the solubility in data set [5] (pH 6.8 PBS solution, pH 6.8, aqueous buffer, thermodynamic from solid, pH 6.8 PBS solution, Ultrasonic, read-out: solubility) is 2.79 µg/mL (≈ 6.15 µM); in data set [5] (simulated fasting intestinal fluid (FaSSIF), 37 °C, fassif, thermodynamic from solid, Simulated fasting intestinal fluid (FaSSIF), 37° C., read-out: solubility) it was 2.87 µg/mL (≈ 6.33 µM); in data set [5] (simulated fasting intestinal fluid (FaSSIF), 75 °C, fassif, thermodynamic from solid, Simulated fasting intestinal fluid (FaSSIF), 75° C., read-out: solubility), 8.64 µg/mL (≈ 19.1 µM); in data set [5] (simulated fasting intestinal fluid (FaSSIF), fassif, thermodynamic from solid, Simulated fasting intestinal fluid (FaSSIF), Ultrasonic, read-out: solubility), 4.76 µg/mL (≈ 10.5 µM); in data set [5] (simulated gastric fluid (SGF), 75 °C, simulated gastric fluid, thermodynamic from solid, Simulated gastric fluid (SGF), 75° C., read-out: solubility), 432 µg/mL (≈ 952 µM); in data set [5] (simulated postprandial intestinal fluid (FeSSIF), 75 °C, fessif, thermodynamic from solid, Simulated postprandial intestinal fluid (FeSSIF), 75° C., read-out: solubility), 18.9 µg/mL (≈ 41.7 µM). For the same molecule, the solubility came to 3.84 µg/mL (≈ 8.47 µM) in data set [5] (water, 25 °C, water, thermodynamic from solid, Water, R.T. (25° C.), read-out: solubility); 3.87 µg/mL (≈ 8.53 µM) in data set [5] (water, 37 °C, water, thermodynamic from solid, Water, 37° C., read-out: solubility); 2.24 µg/mL (≈ 4.94 µM) in data set [5] (water, 75 °C, water, thermodynamic from solid, Water, 75° C., read-out: solubility); 4.63 µg/mL (≈ 10.2 µM) in data set [5] (water, thermodynamic from solid, Water, Ultrasonic, read-out: solubility). In addition, in data set [3], the “solid-form stability, change of XRD after accelerated stability test” value is recorded as “barely no change; also recorded: stable”. Further, the entries for the “solid-form stability, change of XRD after high temperature test” value in data set [2] and in data set [2] (listed as Crystal form I) were “barely no change” and “stable”, respectively.
